Measured values reported in the NIST ThermoML archive (doi:10.1016/j.jct.2015.07.034).
Numbers after ± are expanded uncertainties.

Conditions: for Normal melting temperature: DTA

Row | Compound | Normal melting temperature (Crystal) [°C] | Glass transition temperature (Glass, DSC) [°C] | Normal melting temperature (Crystal 1) [°C] | Triple point temperature (Crystal 2, DSC) [K] | Triple point temperature (Metastable crystal, DSC) [K]
1 | CCn1cc[n+](C)c1.O=S(=O)([N-]S(=O)(=O)C(F)(F)C(F)(F)F)C(F)(F)C(F)(F)F | 16.00 ± 2 | -52.00 ± 2 | – | – | –
2 | CCn1cc[n+](C)c1.O=S(=O)([O-])C(F)(F)F [1-ethyl-3-methylimidazolium trifluoromethanesulfonate] | -14.00 ± 2 | – | – | – | –
3 | CC[n+]1ccccc1.O=S(=O)([N-]S(=O)(=O)C(F)(F)F)C(F)(F)F [1-ethylpyridinium bis[(trifluoromethyl)sulfonyl]imide] | – | – | 32.00 ± 2 | 294.15 ± 2 | –
4 | CC[n+]1ccccc1.CS(=O)(=O)[O-] [1-ethylpyridinium methanesulfonate] | 62.00 ± 2 | – | – | – | –
5 | CC[n+]1ccccc1.O=S(=O)([O-])C(F)(F)F [1-ethylpyridinium triflate] | – | – | 32.00 ± 2 | 266.15 ± 2 | –
6 | C[N+](C)(C)CCO.O=S(=O)([N-]S(=O)(=O)C(F)(F)F)C(F)(F)F [choline bis(trifluoromethylsulfonyl)imide] | – | – | 33.00 ± 2 | 275.15 ± 2 | 300.15 ± 2
